We go through 9 compounds from ChEMBL document CHEMBL1687809, “Novel apramycin resistance gene apmA in bovine and porcine methicillin-resistant Staphylococcus aureus ST398 isolates” (2011).

Format in all cases: functional
The test system of test [1] is Staphylococcus aureus. Kind of test: Antimicrobial activity against Staphylococcus aureus RN4220 carrying pAFS11-apmA, erm(B), tet(L), dfrK, aadD resistance genes by CLSI M31-A3 method.
Test [2] concerns Staphylococcus aureus. Kind of test: Antimicrobial activity against Staphylococcus aureus RN4220 by CLSI M31-A3 method.
The subject of test [3] is Staphylococcus aureus. Kind of test: Antimicrobial activity against methicillin-resistant Staphylococcus aureus ST398 isolate 11 containing apmA, erm(B), tet(L), tet(M), tet(K), dfrK, aadD, mecA, blaZ resistance genes by CLSI M31-A3 method.

Values after ≈ are worked out from the molar mass of the structure shown.

For `CN[C@@H]1[C@@H](O[C@H]2O[C@H](CO)[C@@H](N)[C@H](O)[C@H]2O)OC2C[C@@H](N)[C@@H](O[C@H]3[C@H](O)[C@@H](O)[C@H](N)C[C@@H]3N)OC2[C@@H]1O` (some centres not stated) [APRAMYCIN], the MIC in test [1] was at least 128 µg/mL; in test [2] it was 1 µg/mL (≈ 1.85 µM); in test [3], at least 128 µg/mL.
As for `CCC[C@@H]1C[C@@H](C(=O)N[C@@H]([C@H]2O[C@H](SC)[C@H](O)[C@@H](O)[C@H]2O)[C@H](C)Cl)N(C)C1` [CLINDAMYCIN], the MIC was at least 128 µg/mL in test [1], at most 0.12 µg/mL in test [2] and at least 128 µg/mL in test [3].
Turning to `CC[C@H]1OC(=O)[C@H](C)[C@@H](O[C@H]2C[C@@](C)(OC)[C@@H](O)[C@H](C)O2)[C@H](C)[C@@H](O[C@@H]2O[C@H](C)C[C@H](N(C)C)[C@H]2O)[C@](C)(O)C[C@@H](C)C(=O)[C@H](C)[C@@H](O)[C@]1(C)O` [ERYTHROMYCIN], the MIC in test [1] is at least 64 µg/mL; in test [2], 0.12 µg/mL (≈ 0.164 µM); in test [3], at least 64 µg/mL.
With `NC[C@@H]1O[C@H](O[C@H]2[C@@H](O)[C@H](O[C@@H]3[C@@H](O)[C@H](N)C[C@H](N)[C@H]3O[C@H]3O[C@H](CN)[C@@H](O)[C@H](O)[C@H]3N)O[C@@H]2CO)[C@H](N)[C@@H](O)[C@@H]1O` [FRAMYCETIN], the MIC in test [1] is 32 µg/mL (≈ 52.1 µM); in test [2], at most 1 µg/mL; in test [3], 128 µg/mL (≈ 208 µM).
The like results for `NC[C@H]1O[C@H](O[C@H]2[C@H](O)[C@@H](O[C@H]3O[C@H](CO)[C@@H](O)[C@H](N)[C@H]3O)[C@H](N)C[C@@H]2N)[C@H](O)[C@@H](O)[C@@H]1O` [KANAMYCIN] were, in that order, 64 µg/mL (≈ 132 µM), 4 µg/mL (≈ 8.26 µM) and at least 128 µg/mL.
For `Cc1onc(-c2ccccc2)c1C(=O)N[C@@H]1C(=O)N2[C@@H]1SC(C)(C)[C@@H]2C(=O)O` [OXACILLIN] the same measures were 0.12 µg/mL (≈ 0.299 µM), 0.12 µg/mL (≈ 0.299 µM) and 16 µg/mL (≈ 39.9 µM).
The like results for `CN(C)[C@@H]1C(O)=C(C(N)=O)C(=O)[C@@]2(O)C(O)=C3C(=O)c4c(O)cccc4[C@@](C)(O)[C@H]3C[C@@H]12` [TETRACYCLINE] were, in that order, 32 µg/mL (≈ 72 µM), 0.12 µg/mL (≈ 0.27 µM) and 64 µg/mL (≈ 144 µM).
In the case of `COc1cc(Cc2cnc(N)nc2N)cc(OC)c1OC` [TRIMETHOPRIM], the MIC in test [1] was at least 256 µg/mL; in test [2], 0.5 µg/mL (≈ 1.72 µM); in test [3] it was at least 256 µg/mL.
Regarding GENTAMICIN, the minimum inhibitory concentration (MIC) worked out at 8 µg/mL in test [1], 0.25 µg/mL in test [2] and 8 µg/mL in test [3].
